The values below come from patent US9481670B2, “Triazine compounds” (Sphaera Pharma PTE. Ltd., priority 2011, dated 2016).

The term IC50 denotes the concentration that inhibits the measured activity by half. A lower IC50 goes with inhibition by little substance.

The target of this experiment is T1, PI3K alpha (Homo sapiens, UniProt P42336).
T1 construct: purchased Millipore Upstate
T1 sequence (P42336 whole entry): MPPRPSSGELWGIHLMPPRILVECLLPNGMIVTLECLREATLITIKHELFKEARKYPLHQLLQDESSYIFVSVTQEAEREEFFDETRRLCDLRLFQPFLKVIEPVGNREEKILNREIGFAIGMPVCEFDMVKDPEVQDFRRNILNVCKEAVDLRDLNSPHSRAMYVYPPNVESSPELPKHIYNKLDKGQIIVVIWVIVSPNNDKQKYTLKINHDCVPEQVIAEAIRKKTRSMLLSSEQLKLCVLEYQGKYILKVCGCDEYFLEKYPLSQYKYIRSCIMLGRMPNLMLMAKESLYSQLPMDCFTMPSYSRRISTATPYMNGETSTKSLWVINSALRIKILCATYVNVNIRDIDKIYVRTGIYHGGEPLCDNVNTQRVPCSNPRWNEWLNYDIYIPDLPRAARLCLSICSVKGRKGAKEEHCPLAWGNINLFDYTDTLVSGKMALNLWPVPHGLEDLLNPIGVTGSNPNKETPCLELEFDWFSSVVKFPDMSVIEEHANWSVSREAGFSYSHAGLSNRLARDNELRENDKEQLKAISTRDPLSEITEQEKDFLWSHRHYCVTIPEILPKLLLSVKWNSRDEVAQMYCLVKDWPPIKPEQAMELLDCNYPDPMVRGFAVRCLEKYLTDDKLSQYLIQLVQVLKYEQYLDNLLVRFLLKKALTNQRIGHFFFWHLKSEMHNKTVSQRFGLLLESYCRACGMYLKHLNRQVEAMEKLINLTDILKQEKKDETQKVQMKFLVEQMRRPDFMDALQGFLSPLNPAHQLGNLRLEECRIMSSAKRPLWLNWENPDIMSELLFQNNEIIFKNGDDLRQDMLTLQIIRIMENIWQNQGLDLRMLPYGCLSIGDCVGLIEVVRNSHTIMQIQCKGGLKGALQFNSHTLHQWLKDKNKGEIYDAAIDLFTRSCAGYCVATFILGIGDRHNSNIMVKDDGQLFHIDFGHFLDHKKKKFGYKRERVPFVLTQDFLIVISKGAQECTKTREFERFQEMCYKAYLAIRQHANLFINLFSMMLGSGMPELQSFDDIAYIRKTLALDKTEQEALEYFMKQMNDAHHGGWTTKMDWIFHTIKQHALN
T1 sequence (P27986 whole entry partner): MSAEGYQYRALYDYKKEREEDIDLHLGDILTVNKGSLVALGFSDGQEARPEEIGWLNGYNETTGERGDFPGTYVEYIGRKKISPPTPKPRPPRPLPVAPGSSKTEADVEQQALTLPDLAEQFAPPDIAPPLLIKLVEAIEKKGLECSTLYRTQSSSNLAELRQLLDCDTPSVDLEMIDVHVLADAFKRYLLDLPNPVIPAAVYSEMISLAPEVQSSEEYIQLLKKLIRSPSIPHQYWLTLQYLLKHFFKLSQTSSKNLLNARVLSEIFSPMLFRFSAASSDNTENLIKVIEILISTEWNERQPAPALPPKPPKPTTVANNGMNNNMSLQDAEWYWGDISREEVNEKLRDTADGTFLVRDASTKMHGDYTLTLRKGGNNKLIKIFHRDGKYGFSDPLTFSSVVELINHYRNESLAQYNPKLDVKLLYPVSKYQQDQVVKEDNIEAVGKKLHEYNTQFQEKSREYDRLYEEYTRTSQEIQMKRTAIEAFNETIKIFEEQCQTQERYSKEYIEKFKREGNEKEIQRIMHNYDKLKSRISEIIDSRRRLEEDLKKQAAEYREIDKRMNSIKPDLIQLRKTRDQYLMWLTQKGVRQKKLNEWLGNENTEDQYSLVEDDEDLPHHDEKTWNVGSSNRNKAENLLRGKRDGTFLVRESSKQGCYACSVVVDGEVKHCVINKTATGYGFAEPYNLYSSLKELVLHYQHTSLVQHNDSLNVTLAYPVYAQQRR
Put plainly: P110 Alpha TR-FRET Assay (PI3K alpha kinase assay, HTRF Transcreener ADP Assay). It counts as biochemical. The settings on record: PI3K (WT). Put shortly:
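HTRF Transcreener ADP read-out of ADP formed by PI3K (50 ng enzyme) in 50 mM HEPES pH 7.5, 5 mM MgCl2, 1 mM DTT, 30 μM Na3VO4. Compound preincubated with enzyme 20 min; reaction started with 10 μM ATP and 5 μM PIP2, run 20 min, then ADP-d2/anti-ADP cryptate detection for 1 h.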
A general note: Time-resolved FRET reads energy transfer from a long-lived donor to a nearby acceptor.
The molecule `O=C(Nc1ccccn1)c1cccc(Nc2nc(-c3cccc4[nH]ncc34)nc(N3CCOCC3)n2)c1` [Compound 1129, 3-((4-(1H-indazol-4-yl)-6-morpholino-1,3,5-triazin-2-yl)amino)-N-(pyridin-2-yl)benzamide] returned an IC50 of under 5 µM.

`CS(=O)(=O)N1CCN(C(=O)c2cccc(Nc3nc(-c4cccc5[nH]ncc45)nc(N4CCOCC4)n3)c2)CC1` [Compound 1130, (3-((4-(1H-indazol-4-yl)-6-morpholino-1,3,5-triazin-2-yl)amino)phenyl)(4-(methylsulfonyl)piperazin-1-yl)methanone]: the IC50 was under 5 µM.

Molecule `N#Cc1cccc(Oc2nc(-c3cccc4[nH]ncc34)nc(N3CCOCC3)n2)c1` [Compound 1131, 3-22-{[4-1-(1H-indazol-4-yl)-6-5-(morpholin-4-yl)-1,3,5-triazin-2-yl]oxy}benzonitrile] returned a half-maximal inhibitory concentration (IC50) of over 5 µM.

As to `CN(C)C(=O)c1sccc1Nc1nc(-c2cccc3[nH]ncc23)nc(N2CCOCC2)n1` [Compound 1132, 3-((4-(1H-indazol-4-yl)-6-morpholino-1,3,5-triazin-2-yl)amino)-N,N-dimethylthiophene-2-carboxamide], the IC50 is under 5 µM.

Consider `CN(C)C(=O)[C@@H]1CCC[C@@H](Oc2nc(-c3cccc4[nH]ncc34)nc(N3CCOCC3)n2)C1` [Compound 1133, (1R,3R)-3-14-{[4-1-(1H-indazol-4-yl)-6-5-(morpholin-4-yl)-1,3,5-triazin-2-yl]oxy}-N,N-dimethylcyclohexane-1-carboxamide], for which the IC50 was under 5 µM.

As for `Nc1ccc(-c2nc(N3CCNCC3)nc(N3CCOCC3)n2)cn1` [Compound 1134, 5-18-[4-5-(morpholin-4-yl)-6-3-(piperazin-1-yl)-1,3,5-triazin-2-yl]pyridin-2-amine], the IC50 was under 5 µM.

`NC(=O)CNc1nc(-c2cccc(C(N)=O)c2)nc(N2CCOCC2)n1` [Compound 1135, 3-6-{4-1-[(carbamoylmethyl)amino]-6-2-(morpholin-4-yl)-1,3,5-triazin-2-yl}benzamide] showed an IC50 of over 5 µM.

The molecule `CSCCC(Nc1nc(-c2cccc(O)c2)nc(N2CCOCC2)n1)C(=O)O` (stereo not drawn) [Compound 1136, 2-((4-(3-hydroxyphenyl)-6-morpholino-1,3,5-triazin-2-yl)amino)-4-(methylthio)butanoic acid] yielded an IC50 of under 5 µM.

Take `CN(C)C(=O)CNc1nc(-c2cccc(C(F)F)c2)nc(N2CCOCC2)n1` [Compound 1137, 2-((4-(3-(difluoromethyl)phenyl)-6-morpholino-1,3,5-triazin-2-yl)amino)-N,N-dimethylacetamide]: the IC50 was over 5 µM.

The molecule `CC(Nc1nc(-c2cccc(NS(C)(=O)=O)c2)nc(N2CCOCC2)n1)C(=O)O` (stereo not drawn) [Compound 1138, 2-((4-(3-(methylsulfonamido)phenyl)-6-morpholino-1,3,5-triazin-2-yl)amino)propanoic acid] returned an IC50 of over 5 µM.

`Nc1nc(-c2cccc(O)c2)nc(N2CCOCC2)n1` [Compound 1139, 3-8-[4-3-amino-6-5-(morpholin-4-yl)-1,3,5-triazin-2-yl]phenol] gave an IC50 of under 5 µM.

`COC1CCN(C(=O)c2cccc(Nc3nc(-c4cccc5[nH]ncc45)nc(N4CCOCC4)n3)c2)CC1` [Compound 1140, (3-((4-(1H-indazol-4-yl)-6-morpholino-1,3,5-triazin-2-yl)amino)phenyl)(4-methoxypiperidin-1-yl)methanone] had an IC50 of under 5 µM.

Regarding `CN(C)C(=O)CNc1nc(-c2cccc(C#N)c2)nc(N2CCOCC2)n1` [Compound 1141, 2-((4-(3-cyanophenyl)-6-morpholino-1,3,5-triazin-2-yl)amino)-N,N-dimethylacetamide], the IC50 was over 5 µM.

`CNC(=O)[C@H]1CC[C@H](Oc2nc(-c3cccc4[nH]ncc34)nc(N3CCOCC3)n2)CC1` [Compound 1142, (1r,4r)-4-21-{[4-1-(1H-indazol-4-yl)-6-5-(morpholin-4-yl)-1,3,5-triazin-2-yl]oxy}-N-methylcyclohexane-1-carboxamide] registered an IC50 of under 5 µM.

`CN(C)C(=O)[C@H]1CC[C@@H](Oc2nc(-c3cccc4[nH]ncc34)nc(N3CCOCC3)n2)CC1` [Compound 1143, (1s,4s)-4-21-{[4-1-(1H-indazol-4-yl)-6-5-(morpholin-4-yl)-1,3,5-triazin-2-yl]oxy}-N,N-dimethylcyclohexane-1-carboxamide] came in with an IC50 of under 5 µM.

For `CN(C)C(=O)CNc1nc(-c2ccc(O)nc2)nc(N2CCOCC2)n1` [Compound 1145, 2-((4-(6-hydroxypyridin-3-yl)-6-morpholino-1,3,5-triazin-2-yl)amino)-N,N-dimethylacetamide], the half-inhibitory concentration (IC50) is under 5 µM.

`CS(=O)(=O)Nc1cccc(-c2nc(NCC(=O)O)nc(N3CCOCC3)n2)c1` [Compound 1146, 2-((4-(3-(methylsulfonamido)phenyl)-6-morpholino-1,3,5-triazin-2-yl)amino)acetic acid] showed an IC50 of over 5 µM.

As for `CN(C)C(=O)NC(C)(C)COc1nc(-c2cccc3[nH]ncc23)nc(N2CCOCC2)n1` [Compound 1147, 1-(1-14-{[4-1-(1H-indazol-4-yl)-6-5-(morpholin-4-yl)-1,3,5-triazin-2-yl]oxy}-2-15-methylpropan-2-yl)-3,3-dimethylurea], the IC50 is under 5 µM.

Molecule `CCN1CCC(Oc2nc(-c3cccc4[nH]ncc34)nc(N3CCOCC3)n2)CC1` [Compound 1149, 4-7-{4-3-[(1-25-ethylpiperidin-4-yl)oxy]-6-5-(morpholin-4-yl)-1,3,5-triazin-2-yl}-1H-indazole] came in with an IC50 of under 5 µM.

Molecule `CN(C)C(=O)CNc1nc(-c2cncc(O)c2)nc(N2CCOCC2)n1` [Compound 1150, 2-((4-(5-hydroxypyridin-3-yl)-6-morpholino-1,3,5-triazin-2-yl)amino)-N,N-dimethylacetamide] registered an IC50 of under 5 µM.

Molecule `c1cc(-c2nc(OC3CCNCC3)nc(N3CCOCC3)n2)c2cn[nH]c2c1` [Compound 1151, 4-7-[4-5-(morpholin-4-yl)-6-3-(piperidin-4-yloxy)-1,3,5-triazin-2-yl]-1H-indazole] displayed an IC50 of under 5 µM.

Molecule `N[C@H]1CC[C@H](Oc2nc(-c3cccc4[nH]ncc34)nc(N3CCOCC3)n2)CC1` [Compound 1152, (1r,4r)-4-9-{[4-1-(1H-indazol-4-yl)-6-5-(morpholin-4-yl)-1,3,5-triazin-2-yl]oxy}cyclohexan-1-amine] came in with a half-inhibitory concentration (IC50) of under 5 µM.

For `O=C(O)C1(Nc2nc(-c3cccc(O)c3)nc(N3CCOCC3)n2)CCCC1` [Compound 1153, 1-((4-(3-hydroxyphenyl)-6-morpholino-1,3,5-triazin-2-yl)amino)cyclopentanecarboxylic acid], the IC50 was under 5 µM.

On to `NC(=O)C1CN(C(=O)c2cccc(Nc3nc(-c4cccc5[nH]ncc45)nc(N4CCOCC4)n3)c2)C1` [Compound 1154, 1-(3-((4-(1H-indazol-4-yl)-6-morpholino-1,3,5-triazin-2-yl)amino)benzoyl)azetidine-3-carboxamide], for which the IC50 was under 5 µM.

`CC(C)(CO)Nc1nc(-c2cccc(O)c2)nc(N2CCOCC2)n1` [Compound 1155, 3-6-{4-3-[(1-hydroxy-2-methylpropan-2-yl)amino]-6-5-(morpholin-4-yl)-1,3,5-triazin-2-yl}phenol]: the IC50 was under 5 µM.

The molecule `COc1ccc(F)c(-c2nc(NCC(=O)O)nc(N3CCOCC3)n2)c1` [Compound 1156, 2-((4-(2-fluoro-5-methoxyphenyl)-6-morpholino-1,3,5-triazin-2-yl)amino)acetic acid] had an IC50 of over 5 µM.

In turn, `O=C(NC1CCNCC1)c1cccc(Nc2nc(-c3cccc4[nH]ncc34)nc(N3CCOCC3)n2)c1` [Compound 1157, 3-((4-(1H-indazol-4-yl)-6-morpholino-1,3,5-triazin-2-yl)amino)-N-(piperidin-4-yl)benzamide] returned an IC50 of under 5 µM.

The molecule `NC(=O)c1sccc1Nc1nc(-c2cccc3[nH]ncc23)nc(N2CCOCC2)n1` [Compound 1158, 3-((4-(1H-indazol-4-yl)-6-morpholino-1,3,5-triazin-2-yl)amino)thiophene-2-carboxamide] registered an IC50 of under 5 µM.

For the molecule `Oc1cccc(-c2nc(N3CCOCC3)nc(N3CCOCC3)n2)c1` [Compound 1160, 3-6-[4-1,6-2-bis(morpholin-4-yl)-1,3,5-triazin-2-yl]phenol], the IC50 is under 5 µM.

The molecule `O=C(O)CNc1nc(-c2cccc(C(=O)O)c2)nc(N2CCOCC2)n1` [Compound 1161, 3-6-{4-1-[(carboxymethyl)amino]-6-2-(morpholin-4-yl)-1,3,5-triazin-2-yl}benzoic acid] came in with an IC50 of over 5 µM.

For the molecule `Nc1nc(-c2ccccc2)nc(N2CCOCC2)n1` [Compound 1162, 4-0-(morpholin-4-yl)-6-4-phenyl-1,3,5-triazin-2-amine], the 50% inhibitory concentration (IC50) was over 5 µM.

With `O=C1CN(C(=O)c2cccc(Nc3nc(-c4cccc5[nH]ncc45)nc(N4CCOCC4)n3)c2)CCN1` [Compound 1163, 4-(3-((4-(1H-indazol-4-yl)-6-morpholino-1,3,5-triazin-2-yl)amino)benzoyl)piperazin-2-one], the IC50 is under 5 µM.

As to `COC1CN(C(=O)c2cccc(Nc3nc(-c4cccc5[nH]ncc45)nc(N4CCOCC4)n3)c2)C1` [Compound 1164, (3-((4-(1H-indazol-4-yl)-6-morpholino-1,3,5-triazin-2-yl)amino)phenyl)(3-methoxyazetidin-1-yl)methanone], the IC50 is under 5 µM.

Consider `C[C@H](Nc1nc(-c2ccc(N)nc2)nc(N2CCOCC2)n1)C(=O)N(C)C` [Compound 1165, 2-((4-(6-aminopyridin-3-yl)-6-morpholino-1,3,5-triazin-2-yl)amino)-N,N-dimethylpropanamide], for which the IC50 was under 5 µM.

The molecule `c1ccc(CSc2nc(-c3cccc4[nH]ncc34)nc(N3CCOCC3)n2)cc1` [Compound 1166, 4-(4-(benzylthio)-6-(1H-indazol-4-yl)-1,3,5-triazin-2-yl)morpholine] had an IC50 of under 5 µM.

Consider `CN(C)C(=O)CNc1nc(-c2cccc(O)c2)nc(N2CCOCC2)n1` [Compound 1167, 2-((4-(3-hydroxyphenyl)-6-morpholino-1,3,5-triazin-2-yl)amino)-N,N-dimethylacetamide], for which the IC50 was under 5 µM.
